Experimental data from patent publication US20230286973A1, “PROTEIN SECRETION INHIBITORS” (KEZAR LIFE SCIENCES, priority 2020, published 2023).

Columns and labels:
[1] = test system: PD1-ss+10aa/Gaussia Luciferase; assay: Dox-Induced PD1-ss-Gluc Assay; assay type: cell-based; conditions: 24 hr Dox induction; 293FRT/TO cells; read-out: 24 hr Dox Inducible PD1ssGluc 293FRT/TO: Mean IC50
How it was run: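 Flp-In 293 T-REx, stable line; Tet-regulated PD1-ss+10aa fused to Gaussia luciferase; plated day prior; cpd + doxycycline in DMSO/media; 37 °C, 5% CO2.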

[2] = test system: IL-2-FL/Gaussia Luciferase; assay: Dox Induced IL2-FL-Gluc Assay; assay type: cell-based; conditions: for IC50: 24 hr Dox induction, 293FRT/TO cells, read-out: 24 hr Dox Inducible IL2FLGluc 293FRT/TO: Mean IC50; for 24 hr Dox Inducible IL2FLGluc 293FRT/TO: IL2/PD1: ratio of IL2FLGluc IC50 to PD1ssGluc IC50
How it was run: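 Cells are plated one day ahead, then receive compound dilutions in DMSO/media with doxycycline and incubate at 37° C, 5% CO2. They are Flp-In 293 T-REx cells expressing a full-length IL-2 (amino acids 1-153)–Gaussia luciferase fusion under T-REx control.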

[3] = test system: HER3-ss+4aa/Gaussia Luciferase; assay: Dox-Induced Her3-ss-Gluc Assay; assay type: cell-based; conditions: 24 hr Dox induction; 293FRT/TO cells; read-out: 24 hr Dox Inducible Her3(ss + 4)Gluc 293FRT/TO: Mean IC50
How it was run: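 Cells were seeded a day ahead, then given compound diluted in DMSO/media with doxycycline to induce expression of the HER3 signal sequence (+4 aa)–Gaussia luciferase fusion. Incubation was at 37° C., 5% CO2, in a stable Flp-In 293 T-REx line.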

[4] = Liver Microsome Stability Assay (human); conditions: human liver microsomes, with NADPH, 1.0 uM compound
Method: (§1) Stability of a compound was assessed in the presence of liver microsomes from various sources—mouse, rat, monkey and human liver microsomes. 1.0 uM compound, 0.4% DMSO in 0.1 M Potassium Phosphate with 1.0 mg/mL liver microsomes, were incubated at 37° C. with or without 1 mM NADPH. The samples were quenched at 0, and 30 minutes.

[5] = Liver Microsome Stability Assay (mouse); conditions: mouse liver microsomes, with NADPH, 1.0 uM compound
Method: as §1

[6] = test system: multiple myeloma cell line NCI-H929; assay: H929 Cell Viability Assay; assay type: cell-based, human; conditions: Homo sapiens, NCI-H929, 48 h, NCI-H929 cells, Celltiter-Glo
How it was run: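 Luminescent ATP detection (CellTiter-Glo) after 48 hours of compound exposure measures viability. Cells were plated in RPMI 1640 containing 10% fetal bovine serum and kept at 37° C under 5% CO2.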

[7] = test system: TNFα-FL/Gaussia Luciferase; assay: Dox Induced TNFα-FL-Gluc Assay; assay type: cell-based; conditions: for IC50: 24 hr Dox induction, 293FRT/TO cells, read-out: 24 hr Dox Inducible TNFaFLGluc 293FRT/TO: Mean IC50; for 24 hr Dox Inducible TNFaFLGluc 293FRT/TO: TNF/PD1: ratio of TNFaFLGluc IC50 to PD1ssGluc IC50
How it was run: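 Stereoisomer mixtures were tested where stereochemistry is not drawn. Induction used doxycycline added together with compound dilutions in DMSO/media to Flp-In 293 T-REx cells carrying a T-REx-regulated TNFα (aa 1-233)-Gaussia luciferase construct, then incubated at 37 °C, 5% CO2.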

[8] = Liver Microsome Stability Assay (monkey); conditions: monkey liver microsomes, with NADPH, 1.0 uM compound
Method: as §1

[9] = test system: multiple myeloma cell line U266B1; assay: U266 Cell Viability Assay; assay type: cell-based, human; conditions: Homo sapiens, U-266, 48 h, U266B1 cells, Celltiter-Glo
How it was run: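 Steps: culture in RPMI 1640 plus 10% FBS and 2 mM glutamine; plate and add compound dilutions; incubate 48 hours at 37° C., 5% CO2; add CellTiter-Glo and quantify luciferase signal.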

[10] = Liver Microsome Stability Assay (rat); conditions: rat liver microsomes, with NADPH, 1.0 uM compound
Method: as §1

NC(=O)N1CCC(Oc2ccc(N3CCC[C@@H]3c3csc(NC(=O)c4cccn4Cc4ccnc(F)c4)n3)nc2)CC1 [Compound A156, (R)-4-((6-(2-(2-(1-((2-fluoropyridin-4-yl)methyl)-1H-pyrrole-2-carboxamido)thiazol-4-yl)pyrrolidin-1-yl)pyridin-3-yl)oxy)piperidine-1-carboxamide]
IC50 [1]: 115 nM
IC50 [2]: 349 nM
24 hr Dox Inducible IL2FLGluc 293FRT/TO: IL2/PD1 [2]: 3
IC50 [3]: 273 nM
Liver Microsome Stability (Multiple Species): Human - % Remaining after 30 min w/NADPH [4]: 10.3%
Liver Microsome Stability (Multiple Species): Mouse - % Remaining after 30 min w/NADPH [5]: 38.2%
EC50 [6]: 2960 nM
IC50 [7]: 1560 nM
24 hr Dox Inducible TNFaFLGluc 293FRT/TO: TNF/PD1 [7]: 13.5
Liver Microsome Stability (Multiple Species): Monkey - % Remaining after 30 min w/NADPH [8]: 1.75%
EC50 [9]: > 25000 nM
Liver Microsome Stability (Multiple Species): Rat - % Remaining after 30 min w/NADPH [10]: 34.1%

O=C(Nc1nc([C@H]2CCCN2c2ccc(OC3CSC3)cc2)cs1)c1cccn1Cc1ccnc(F)c1 [Compound A157, (R)-1-((2-fluoropyridin-4-yl)methyl)-N-(4-(1-(4-(thietan-3-yloxy)phenyl)pyrrolidin-2-yl)thiazol-2-yl)-1H-pyrrole-2-carboxamide]
IC50 [1]: 42.2 nM
IC50 [2]: 52.2 nM
24 hr Dox Inducible IL2FLGluc 293FRT/TO: IL2/PD1 [2]: 1.2
IC50 [3]: 49.7 nM
Liver Microsome Stability (Multiple Species): Human - % Remaining after 30 min w/NADPH [4]: 22.9%
Liver Microsome Stability (Multiple Species): Mouse - % Remaining after 30 min w/NADPH [5]: 0.84%
EC50 [6]: 1470 nM
IC50 [7]: 407 nM
24 hr Dox Inducible TNFaFLGluc 293FRT/TO: TNF/PD1 [7]: 9.64
Liver Microsome Stability (Multiple Species): Monkey - % Remaining after 30 min w/NADPH [8]: 13.2%
EC50 [9]: > 25000 nM
Liver Microsome Stability (Multiple Species): Rat - % Remaining after 30 min w/NADPH [10]: 2.44%

O=C(Nc1nc([C@H]2CCCN2c2ccc(OC3CS(=O)(=O)C3)cc2)cs1)c1cccn1Cc1ccnc(F)c1 [Compound A158]
IC50 [1]: 90.5 nM
IC50 [2]: 130 nM
24 hr Dox Inducible IL2FLGluc 293FRT/TO: IL2/PD1 [2]: 1.4
IC50 [3]: 128 nM
Liver Microsome Stability (Multiple Species): Human - % Remaining after 30 min w/NADPH [4]: 8.23%
Liver Microsome Stability (Multiple Species): Mouse - % Remaining after 30 min w/NADPH [5]: 14.5%
EC50 [6]: 3320 nM
IC50 [7]: 1060 nM
24 hr Dox Inducible TNFaFLGluc 293FRT/TO: TNF/PD1 [7]: 11.7
Liver Microsome Stability (Multiple Species): Monkey - % Remaining after 30 min w/NADPH [8]: 1.84%
EC50 [9]: > 25000 nM
Liver Microsome Stability (Multiple Species): Rat - % Remaining after 30 min w/NADPH [10]: 24.2%

NC(=O)N1CCC(Oc2ccc(N3CCC[C@@H]3c3csc(NC(=O)c4cccn4Cc4ccnc(F)c4)n3)cn2)CC1 [Compound A159, (R)-4-((5-(2-(2-(1-((2-fluoropyridin-4-yl)methyl)-1H-pyrrole-2-carboxamido)thiazol-4-yl)pyrrolidin-1-yl)pyridin-2-yl)oxy)piperidine-1-carboxamide]
IC50 [1]: 27.9 nM
IC50 [2]: 80.6 nM
24 hr Dox Inducible IL2FLGluc 293FRT/TO: IL2/PD1 [2]: 2.9
IC50 [3]: 35.8 nM
Liver Microsome Stability (Multiple Species): Human - % Remaining after 30 min w/NADPH [4]: 9.01%
Liver Microsome Stability (Multiple Species): Mouse - % Remaining after 30 min w/NADPH [5]: 36%
EC50 [6]: 1620 nM
IC50 [7]: 790 nM
24 hr Dox Inducible TNFaFLGluc 293FRT/TO: TNF/PD1 [7]: 28.3
Liver Microsome Stability (Multiple Species): Monkey - % Remaining after 30 min w/NADPH [8]: 3.91%
EC50 [9]: > 25000 nM
Liver Microsome Stability (Multiple Species): Rat - % Remaining after 30 min w/NADPH [10]: 19.7%

CC(=O)N1CCC(Cc2ccc(N3CCC[C@@H]3c3csc(NC(=O)c4cccn4Cc4ccnc(F)c4)n3)cc2)CC1 [Compound A160, (R)-N-(4-(1-(4-((1-acetylpiperidin-4-yl)methyl)phenyl)pyrrolidin-2-yl)thiazol-2-yl)-1-((2-fluoropyridin-4-yl)methyl)-1H-pyrrole-2-carboxamide]
IC50 [1]: 48.1 nM
IC50 [2]: 96 nM
24 hr Dox Inducible IL2FLGluc 293FRT/TO: IL2/PD1 [2]: 2
IC50 [3]: 82.4 nM
Liver Microsome Stability (Multiple Species): Human - % Remaining after 30 min w/NADPH [4]: 0.66%
Liver Microsome Stability (Multiple Species): Mouse - % Remaining after 30 min w/NADPH [5]: 6.28%
EC50 [6]: 2670 nM
IC50 [7]: 691 nM
24 hr Dox Inducible TNFaFLGluc 293FRT/TO: TNF/PD1 [7]: 14.3
Liver Microsome Stability (Multiple Species): Monkey - % Remaining after 30 min w/NADPH [8]: 0.18%
EC50 [9]: > 25000 nM
Liver Microsome Stability (Multiple Species): Rat - % Remaining after 30 min w/NADPH [10]: 16.8%

CC(=O)N1CCC(C(C)c2ccc(N3CCC[C@@H]3c3csc(NC(=O)c4cccn4Cc4ccnc(F)c4)n3)cc2)CC1 (stereo partly drawn) [Compound A161, N-(4-((2R)-1-(4-(1-(1-acetylpiperidin-4-yl)ethyl)phenyl)pyrrolidin-2-yl)thiazol-2-yl)-1-((2-fluoropyridin-4-yl)methyl)-1H-pyrrole-2-carboxamide]
IC50 [1]: 284 nM
IC50 [2]: 640 nM
24 hr Dox Inducible IL2FLGluc 293FRT/TO: IL2/PD1 [2]: 2.3
IC50 [3]: 406 nM
Liver Microsome Stability (Multiple Species): Human - % Remaining after 30 min w/NADPH [4]: 1.04%
Liver Microsome Stability (Multiple Species): Mouse - % Remaining after 30 min w/NADPH [5]: 0.42%
EC50 [6]: 12400 nM
IC50 [7]: 4000 nM
24 hr Dox Inducible TNFaFLGluc 293FRT/TO: TNF/PD1 [7]: 14.1
Liver Microsome Stability (Multiple Species): Monkey - % Remaining after 30 min w/NADPH [8]: 0.12%
EC50 [9]: > 25000 nM
Liver Microsome Stability (Multiple Species): Rat - % Remaining after 30 min w/NADPH [10]: 7.32%

O=C(Nc1nc(-c2cccc(-c3ccccn3)c2)cs1)c1cccn1Cc1ccnc(F)c1 [Compound A162, 1-((2-fluoropyridin-4-yl)methyl)-N-(4-(3-(pyridin-2-yl)phenyl)thiazol-2-yl)-1H-pyrrole-2-carboxamide]
IC50 [1]: 758 nM
IC50 [2]: 1770 nM
24 hr Dox Inducible IL2FLGluc 293FRT/TO: IL2/PD1 [2]: 2.4
IC50 [3]: 1270 nM
Liver Microsome Stability (Multiple Species): Human - % Remaining after 30 min w/NADPH [4]: 1.91%
Liver Microsome Stability (Multiple Species): Mouse - % Remaining after 30 min w/NADPH [5]: 7.13%
EC50 [6]: > 25000 nM
IC50 [7]: > 25000 nM
24 hr Dox Inducible TNFaFLGluc 293FRT/TO: TNF/PD1 [7]: >33.0
Liver Microsome Stability (Multiple Species): Monkey - % Remaining after 30 min w/NADPH [8]: 0.25%
EC50 [9]: > 25000 nM
Liver Microsome Stability (Multiple Species): Rat - % Remaining after 30 min w/NADPH [10]: 8.48%

Cc1cc(C(=O)Nc2nc([C@H]3CCCN3c3ccc(NC(=O)N(C)C)cc3)cs2)n(Cc2ccnc(F)c2)c1 [Compound A163, (R)-N-(4-(1-(4-(3,3-dimethylureido)phenyl)pyrrolidin-2-yl)thiazol-2-yl)-1-((2-fluoropyridin-4-yl)methyl)-4-methyl-1H-pyrrole-2-carboxamide]
IC50 [1]: 16.1 nM
IC50 [2]: 39.6 nM
24 hr Dox Inducible IL2FLGluc 293FRT/TO: IL2/PD1 [2]: 2.5
IC50 [3]: 29.9 nM
Liver Microsome Stability (Multiple Species): Human - % Remaining after 30 min w/NADPH [4]: 67.5%
Liver Microsome Stability (Multiple Species): Mouse - % Remaining after 30 min w/NADPH [5]: 36.3%
EC50 [6]: 714 nM
IC50 [7]: 328 nM
24 hr Dox Inducible TNFaFLGluc 293FRT/TO: TNF/PD1 [7]: 20.3
Liver Microsome Stability (Multiple Species): Monkey - % Remaining after 30 min w/NADPH [8]: 44.9%
EC50 [9]: > 25000 nM
Liver Microsome Stability (Multiple Species): Rat - % Remaining after 30 min w/NADPH [10]: 50.2%
